Measurements published in US7101878B1 (Agouron Pharmaceuticals, Inc., priority 1998, dated 2006).

Experiments:
Glucagon = Glucagon (Homo sapiens, UniProt P47871); assay: Selectivity: Glucagon
NPY Y1 = target: T1, NPY Y1 (Homo sapiens, UniProt P25929); assay: Selectivity: NPY Y1
T1 sequence (P25929 1-384): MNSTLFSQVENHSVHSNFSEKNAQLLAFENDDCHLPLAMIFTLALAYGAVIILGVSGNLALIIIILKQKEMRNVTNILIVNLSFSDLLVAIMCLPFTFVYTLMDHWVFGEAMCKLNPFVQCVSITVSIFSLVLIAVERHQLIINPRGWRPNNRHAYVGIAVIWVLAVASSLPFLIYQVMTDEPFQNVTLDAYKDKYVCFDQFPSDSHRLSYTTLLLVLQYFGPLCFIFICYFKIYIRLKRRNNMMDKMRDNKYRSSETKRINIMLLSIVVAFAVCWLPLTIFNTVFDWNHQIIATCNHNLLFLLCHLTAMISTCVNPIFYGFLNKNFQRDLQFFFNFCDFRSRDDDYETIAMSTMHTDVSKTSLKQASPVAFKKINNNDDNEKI

rat GnRH receptor = target: T2, rat GnRH receptor (Rattus norvegicus, UniProt P30969); assay: Microphysiometry, extracellular acidification rate, GGH3 cells; assay type: cell-based
T2 sequence (P30969 1-327): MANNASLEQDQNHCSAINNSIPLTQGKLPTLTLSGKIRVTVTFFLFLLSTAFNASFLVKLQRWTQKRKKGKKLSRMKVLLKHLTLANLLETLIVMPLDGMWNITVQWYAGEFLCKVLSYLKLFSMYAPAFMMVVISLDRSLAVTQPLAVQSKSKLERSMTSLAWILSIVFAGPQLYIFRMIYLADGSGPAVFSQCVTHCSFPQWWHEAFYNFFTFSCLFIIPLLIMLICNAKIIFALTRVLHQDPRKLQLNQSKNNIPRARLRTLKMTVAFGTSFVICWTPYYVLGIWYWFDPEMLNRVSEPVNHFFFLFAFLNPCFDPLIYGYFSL
Method: These cells have been extensively characterized previously (Kaiser et al., 1997). These cells were grown in low glucose Dulbecco's modified Eagle's medium (DMEM) containing: 100U/mL penicillin/streptomycin, 0.6 g/L G418 and 10% beat-inactivated fetal bovine serum
This cell line was provided by Dr. Stuart Sealfon, Mount Sinai Medical School New York, N.Y. These cells were grown in DMEM supplemented with 0.2 g/L G418 100 U/ml penicillin/streptomycin and 10% FBS. Both GGH3 and hGnRH-R/293 cells were utilized for both for both total inositol phosphate measurement and for microphysiometry assessment of compound efficacy.
The Cytosensor®Microphysiometer (Molecular Devices, Sunnyvale, Calif.) is a real-time, noninvasive, nonradioactive semiconductor-based system for monitoring the cellular responses to various stimuli. It is based on a pH-sensitive silicon sensor, the light-addressable potentiometric sensor which forms part of a microvolume flow chamber in which cultured cells are immobilized (Pitchford et al., 1995; Parce et al., 1989; Owicki, et al. 1994).
GGH3 cells were seeded in low-buffered minimal essential media (MEM, Sigma) containing 25 mM NaCl and 0.1% BSA at a density of 500,000 cells/capsule onto the polycarbonate membrane (3 μm porosity) of cell capsule cups (Molecular Devices, Sunnyvale, Calif.). Capsule cups were transferred to sensor chambers where cells were held in close apposition to a silicon sensor within a sensor chamber, which measures small changes in pH in the microvolume of the sensor chamber. Low-buffered medium was pumped continuously across the cells at a rate of approximately 100 μl/min from one of two fluid reservoirs. A selection valve determined which reservoir from which fluid was perifused onto the cells.
The Cytosensor®Microphysiometer generates a voltage signal, which is a linear function of pH, every second. In order to measure acidification rates, flow to the sensor chamber containing the cells was periodically interrupted, allowing for excreted acidic metabolites to build up in the extracellular fluid of the cells. In these experiments, cells were maintained at 37° C. on a two minute flow cycle with cells being perfused with media for 80 seconds followed by 40 seconds in which the flow of media was stopped. During this 40 second interval, acidification rates were measured for a 30 sec interval. In this fashion, a single acidification rate was calculated every two min. The Cytosensor®Microphysiometer device contains eight such sensor units, allowing for eight simultaneous experiments to be performed. Each unit was individually programmed utilizing a computer linked to the system.
GGH3 cells were initially equilibrated in the low-buffered MEM media for a period of 30-60 min in which basal acidification rates (measured as μV/sec), in the absence of any stimuli, were monitored. When the basal rate of acidification changed by less than ten percent over a period of twenty minutes, experiments were initiated. Time course experiments were performed to determine the optimal time for agonist exposure prior to acidification rate measurement and the duration of exposure needed to obtain peak acidification responses to various agonists. From these time course experiments, it was determined that cells should be exposed to GnRH peptide agonists at least one minute prior to collection of acidification rate data. Peak acidification rates usually occurred in the first two-minute exposure cycle. In order to capture the peak response to GnRH, cells were exposed to the agonist for a total of four minutes. […] All compounds were tested in a final concentration of 1% DMSO in low-buffered MEM media described above.

[1] = Metabolism rate, pmol/min/mg at 1 μM, human; assay type: in vitro ADME; settings: 1 μM compound
[2] = rat, readout (PI or pH) not stated

Chain of Glucagon (P47871 26-477): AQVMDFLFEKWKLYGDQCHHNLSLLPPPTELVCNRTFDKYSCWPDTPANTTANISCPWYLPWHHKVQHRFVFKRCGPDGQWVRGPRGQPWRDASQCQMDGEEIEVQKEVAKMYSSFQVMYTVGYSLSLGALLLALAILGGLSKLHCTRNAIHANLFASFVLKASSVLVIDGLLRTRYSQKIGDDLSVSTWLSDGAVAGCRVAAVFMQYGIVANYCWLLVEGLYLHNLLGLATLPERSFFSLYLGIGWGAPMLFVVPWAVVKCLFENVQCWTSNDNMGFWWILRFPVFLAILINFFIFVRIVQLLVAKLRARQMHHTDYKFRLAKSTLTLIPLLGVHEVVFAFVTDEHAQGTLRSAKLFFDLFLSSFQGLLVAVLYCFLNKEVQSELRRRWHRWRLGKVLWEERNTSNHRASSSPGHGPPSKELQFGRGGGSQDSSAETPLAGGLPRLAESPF

Row | SMILES | Kb (rat GnRH receptor; [2]) [µM] | Human pmol/min/mg 1 μM [1] [pmol/min/mg] | IC50 (Glucagon) [µM] | IC50 (NPY Y1) [µM] | other results
1 | Cc1cc2c(cc1Cc1ccc(C(=O)NC[C@H]3CC[C@H](CNC(=N)N)CC3)o1)C(C)(C)CCC2(C)C [Compound 10] |  |  | 6.6 | 9.7 | 
2 | Cc1cc2c(cc1Cc1ccc(C(=O)NCC3CCCC(CNc4nccc(NCC5CCCO5)n4)C3)o1)C(C)(C)CCC2(C)C (centres unmarked) [Compound 11] |  |  | 3.2 | 2.55 | 
3 | Cc1cc2c(cc1Cc1ccc(C(=O)NC[C@H]3CC[C@H](C(=O)O)CC3)o1)C(C)(C)CCC2(C)C [Compound 12] |  |  | 10 | > 10 | 
4 | Cc1cnc(CNC(=O)c2ccc(Cc3cc4c(cc3C)C(C)(C)CCC4(C)C)o2)cn1 [Compound 13] |  |  | 7.9 | > 10 | 
5 | COc1cccc(OC)c1NC(=O)c1ccc(Cc2cc3c(cc2C)C(C)(C)CCC3(C)C)o1 [Compound 20] | 0.009 |  | 6.7 | > 10 | Ki (Glucagon): 6.7 µM; Ki (NPY Y1): > 10 µM
6 | COc1cc(OC)c(NC(=O)c2ccc(Cc3cc4c(cc3C)C(C)(C)CCC4(C)C)o2)c(OC)c1 [Compound 134] |  | 630 |  |  | Kb (rat GnRH receptor; rat, pH (microphysiometry)): 0.013 µM
7 | COc1cc(OC)c(NC(=O)c2ccc(Cc3cc4c(cc3OC)C(C)(C)CCC4(C)C)o2)c(OC)c1 [Compound 169] | 0.017 | 589 |  |  | 

Further lines, with some results ahead:

Row | Kb (rat GnRH receptor; [2]) [µM] | Human pmol/min/mg 1 μM [1] [pmol/min/mg] | SMILES | IC50 (Glucagon) [µM] | IC50 (NPY Y1) [µM] | other results
8 |  | 289 | Cc1cc2c(cc1Cc1ccc(C(=O)NCc3nc4ccccc4[nH]3)o1)C(C)(C)CCC2(C)C [Compound 48] | 6.3 | > 10 | 
9 | 0.008 | 311 | Cc1cc2c(cc1Cc1ccc(C(=O)NCc3cccc(CNc4nccc(NCC5CCCO5)n4)c3)o1)C(C)(C)CCC2(C)C (centres unmarked) [Compound 70] |  |  | GnRH functional (rat) (rat GnRH receptor; [2]): Antag- onist (rat)
10 |  | 191 | Cc1cc2c(cc1Cc1ccc(C(=O)NCc3cccc(CNc4ccnc(NC[C@@H]5CCCO5)n4)c3)o1)C(C)(C)CCC2(C)C [Compound 136] |  |  | effect on GnRH dose-response curves, extracellular acidification rate (rat GnRH receptor; GGH3 cells, one experiment): rightward shift in the dose-response curves to GnRH without decreasing the maximum response to GnRH; Kb (rat GnRH receptor; rat, pH (microphysiometry)): 0.008 µM
11 | 0.009 | 876 | COc1cc(OC)c(NC(=O)c2ccc(Cc3cc4c(cc3C)C(C)(C)CCC4(C)C)o2)c(OC)c1C#N [Compound 177] |  |  | 
12 | 0.011 | 238 | COc1cc(OC)c(NC(=O)c2ccc(Cc3cc4c(cc3C)CCCC4(C)C)o2)c(OC)c1 [Compound 183] |  |  | 
13 | 0.0009 | 346 | COc1cc(OC)c(NC(=O)c2ccc(Cc3cc(C(C)(C)C)ccc3C)o2)c(OC)c1 [Compound 200] |  |  | 
